According to patent US12161641B2, “Treatments and prevention of opioid neonatal abstinence syndrome” (Ohio State Innovation Foundation, priority 2016, dated 2024):

Assays:
[1] = Cumulative injections of 6β-naltrexol: tissue levels, 1 versus 4 injections; format: in vivo, mice
Procedure: While 6β-naltrexol is relatively excluded from adult brain, it might accumulate slowly upon multiple dosing because of slow exit from the brain. Therefore, experiments were conducted to determine whether 6β-naltrexol accumulates in tissues over time after chronic delivery, and especially through retention in adult brain. After 4 injections of 6β-naltrexol over a 24 hr period (every 6 hrs), 6β-naltrexol levels were measured in fetal and maternal tissues 4 hrs after the last dose, and accumulation assessed in comparison to a single injection with a 4 hr survival. […] However, this was not significant (p>0.2). Also, 6β-naltrexol trended towards greater accumulation in liver than brain (p=0.084 for comparison of adult liver vs adult brain after 4 injections). Likewise, 6β-naltrexol trended towards greater accumulation in embryos than adults (p=0.063 for comparison of fetal vs adult brain after 4 injections).

[2] = Time-course of drug levels in adult and embryonic mouse plasma, brain and liver after a single subcutaneous injection (LC-MS/MS); conditions: for 6β-naltrexol level, Embryo Brain / 6β-naltrexol level, Embryo Liver: dam 10 mg/kg subcutaneously
pre-weaning age mice = assay: Naloxone-induced withdrawal jumping after morphine dosing in early postnatal mice; format: in vivo
Procedure: Animals were injected with morphine alone or morphine mixed with increasing amounts of 6β-naltrexol. Injections were started on postnatal day 12 (PD12) and continued for 5 days. On days 1-3 morphine was injected at 10 mg/kg, and at 20 mg/kg on days 4 and 5. On day 6 (PD18) a final injection of 20 mg/kg was made, and 3 hours later mice were injected with 30 mg/kg naloxone to induce withdrawal. All injections were subcutaneous. When Morphine was co-injected with 6β-naltrexol the latter was held at a constant ratio when the Morphine dose was increased on days 4-6. Because of the changing Morphine dosages the 6β-naltrexol dose is reported as a ratio relative to Morphine, or as a dose range. Immediately upon injection with naloxone mice were placed in a clear plastic container with a 6 inch square base and 10 inches tall, with a lid. Withdrawal jumping was videotaped and jumps were scored in a 15 minute interval.
Summary data are presented as means+1 SEM unless otherwise indicated Continuous data (drug concentrations) were analyzed using one-way ANOVA and post hoc comparisons were made using either Dunnett's procedure (for one-to-many comparisons) or t-tests (for all-pairs contrasts). In the latter case, p-values were adjusted for multiple comparisons using Hommel's method (Hommel, G. (1988) Biometrika 75:383-386). Data were log transformed to account for heteroscedasticity. When ratio values such as the brain/plasma ratio were compared, these were log-transformed before analysis to account for the constrained structure of ratio variables (e.g., Heslop, D. (2009) Geophys. J. Int. 178:159-161; Schilling K, et al. (2012) J Neurosci. 32:12651-12656). The dependence of jumping behavior on 6β-naltrexol levels was modelled using a 4-parametric log-normal curve taking into account that the response was a count variable. AUCs were integrated over the time span analyzed (i.e., from 0 to 240 min; Wolfsegger, M J, et al. (2009) J Pharmacokinet Pharmacodyn 36:479-494). Confidence intervals for AUCs were obtained by bootstrapping, as recommended in Jaki & Wolfsegger (Jaki, T, et al (2009) Pharmaceutical Statistics 8:12-24). All statistical procedures were implemented in R (R Core Team, 2015), using the packages multcomp (Hothorn, T, et al. (2008) Biometrical Journal 50:346-363) for multiple comparisons, PK (Jaki, T, et al. (2011) Pharmaceutical Statistics 10:284-288) for pharmacokinetic analyses, and drc (Ritz, C, et al. (2005) Bioassay analysis using R. J. Stat. Softw. 12:22) for dose-response fitting.
Considering that 6β-naltrexol continues to penetrate the brain at high levels prior to PD20 experiments were conducted to determine whether concomitant administration of 6β-naltrexol reduces withdrawal behaviors in pre-weaning age mice. A morphine dosing schedule was adapted based on studies in early postnatal rats and adult mice (Kest B. et al. (2002) Neuroscience 115:463-469; Jones, K L, et al. (1995) Behav. Neurosci. 109:1189-1198). Mice were injected with morphine alone, with morphine in combination with increasing concentrations of 6β-naltrexol, or saline alone, starting at P12 and continuing for 6 days. Withdrawal was then induced with an injection of naloxone. There was robust jumping characteristic of adult withdrawal behavior (Kest B, et al. (2002) Neuroscience 115.463-469), but not previously reported for pre-weaning mice or rats to our knowledge. […] At the highest dose tested, 0.5-1.0 mg/kg (= 1/20th that of morphine), withdrawal jumping is 94% reduced. The lowest 6β-naltrexol dose tested, 0.0033-0.0066 mg/kg (= 1/3000th that of morphine) caused a 20% decrease in jumping. There is also a time component to the effect of 6β-naltrexol on jumping behavior (FIG. 3B). As 6β-naltrexol levels were increased the jumps observed in a 15 minute testing bout were increasingly delayed. […]

[3] = adult mice; 10 minutes after injection; cited from earlier work
[4] = 20 min survival, 10 mg/kg subcutaneously
[5] = 45 min survival, 10 mg/kg subcutaneously
[6] = 2 hrs survival, 10 mg/kg subcutaneously
[7] = 4 hrs survival, 10 mg/kg subcutaneously
[8] = non-compartmental, 0 to 240 min, 10 mg/kg subcutaneously

Structure (SMILES): Oc1ccc2c3c1O[C@H]1[C@H](O)CC[C@@]4(O)[C@@H](C2)N(CC2CC2)CC[C@]314 [6β-naltrexol]
- increase of 6β-naltrexol after cumulative injections, average for all tissues ([1]; 4 injections over 24 hr vs single injection, 4 hr survival, not significant (p>0.2)): ~1.5 fold
- 6β-naltrexol level, Adult Brain, 1 injection ([1]; adult brain, 1 injection of 10 mg/kg, 4 hr survival): 110
- 6β-naltrexol level, Adult Brain, 4 injections in 24 hrs ([1]; adult brain, 4 injections of 10 mg/kg in 24 hrs, 4 hr survival after last dose): 160
- 6β-naltrexol level, Adult Liver, 1 injection ([1]; adult liver, 1 injection of 10 mg/kg, 4 hr survival): 280
- 6β-naltrexol level, Adult Liver, 4 injections in 24 hrs ([1]; adult liver, 4 injections of 10 mg/kg in 24 hrs, 4 hr survival after last dose): 360
- 6β-naltrexol level, Embryo Brain, 1 injection ([1]; embryo brain, 1 injection of 10 mg/kg, 4 hr survival): 210
- 6β-naltrexol level, Embryo Brain, 4 injections in 24 hrs ([1]; embryo brain, 4 injections of 10 mg/kg in 24 hrs, 4 hr survival after last dose): 290
- 6β-naltrexol level, Embryo Liver, 1 injection ([1]; embryo liver, 1 injection of 10 mg/kg, 4 hr survival): 250
- 6β-naltrexol level, Embryo Liver, 4 injections in 24 hrs ([1]; embryo liver, 4 injections of 10 mg/kg in 24 hrs, 4 hr survival after last dose): 500
- 6β-naltrexol level, Plasma, 1 injection ([1]; plasma, 1 injection of 10 mg/kg, 4 hr survival): 40
- 6β-naltrexol level, Plasma, 4 injections in 24 hrs ([1]; plasma, 4 injections of 10 mg/kg in 24 hrs, 4 hr survival after last dose): 60
- fetal brain KP ratio ([2]; 20 min after injection): not significantly different from unity
- adult brain KP ratio (brain:plasma) ([2]; 20 min survival): 0.13
- fetal brain:maternal plasma KP ratio ([2]; 45 min after drug injection): 2.7
- adult brain KP ratio (brain:plasma) ([2]; 45 minutes survival): 0.34
- fetal brain:maternal plasma KP ratio ([2]; 120 min after injection): 15.7
- brain KP ratio based on AUC's (adult) ([2]; AUC's integrated over 4 hrs): 0.58
- KP ratio based on AUC's, adult liver ([2]; AUC-based): 2.6
- KP ratio based on AUC's, fetal liver ([2]; AUC-based): 4.3
- fetal brain KP ratio based on non-compartmental AUC's ([2]; AUC-based): 3.6
- 6β-naltrexol level, Adult Brain [2, 4]: 260 ng/g
- 6β-naltrexol level, Adult Brain [2, 5]: 310 ng/g
- 6β-naltrexol level, Adult Brain [2, 6]: 230 ng/g
- 6β-naltrexol level, Adult Brain [2, 7]: 110 ng/g
- 6β-naltrexol level, Adult Liver [2, 4]: 3570 ng/g
- 6β-naltrexol level, Adult Liver [2, 5]: 3200 ng/g
- 6β-naltrexol level, Adult Liver [2, 6]: 530 ng/g
- 6β-naltrexol level, Adult Liver [2, 7]: 280 ng/g
- embryonic brain levels higher than in adult brain, at peak ([2]; at peak, 10 mg/kg subcutaneously): ~9 fold
- 6β-naltrexol level, Embryo Brain ([2]; 20 min survival): 1350 ng/g
- 6β-naltrexol level, Embryo Brain ([2]; 45 min survival): 2780 ng/g
- 6β-naltrexol level, Embryo Brain ([2]; 2 hrs survival): 1370 ng/g
- 6β-naltrexol level, Embryo Brain ([2]; 4 hrs survival): 210 ng/g
- 6β-naltrexol level, Embryo Liver ([2]; 20 min survival): 2970 ng/g
- 6β-naltrexol level, Embryo Liver ([2]; 45 min survival): 4400 ng/g
- 6β-naltrexol level, Embryo Liver ([2]; 2 hrs survival): 1040 ng/g
- 6β-naltrexol level, Embryo Liver ([2]; 4 hrs survival): 250 ng/g
- AUC for embryonic brain greater than that of adult brain ([2]; non-compartmental, 0 to 240 min): 6 fold
- area under the curve (AUC), (maternal) plasma [2, 8]: 83+6×10^3 ng/ml-min
- area under the curve (AUC), adult brain [2, 8]: 49+2×10^3 ng/ml-min
- area under the curve (AUC), adult liver [2, 8]: 274+36×10^3 ng/ml-min
- area under the curve (AUC), embryonic (fetal) brain [2, 8]: 302+60×10^3 ng/ml-min
- area under the curve (AUC), embryonic liver [2, 8]: 373+84
- 6β-naltrexol level, Plasma [2, 4]: 2060 ng/g
- 6β-naltrexol level, Plasma [2, 5]: 930 ng/g
- 6β-naltrexol level, Plasma [2, 6]: 90 ng/g
- 6β-naltrexol level, Plasma [2, 7]: 40 ng/g
- total jumps in the first three time bins (up to 4.5 mins) (pre-weaning age mice; 0.0033 mg/kg, 73+28 with no 6β-naltrexol, p=0.07): 37+29 jumps
- latency-to-first-jump (pre-weaning age mice; 0.01-0.02 mg/kg (1/1000th the dose of morphine)): 118+31 sec
- latency-to-first-jump (pre-weaning age mice; 0.05-0.1 mg/kg (1/200th the dose of morphine)): 163+46 sec
- Survival (pre-weaning age mice; all conditions and all animals tested by this procedure): 100%
- inhibitory dose 50 (ID50), withdrawal jumping (pre-weaning age mice; co-injected with morphine 10-20 mg/kg s.c. PD12-PD18, naloxone 30 mg/kg, jumps in 15 minutes): 0.022 to 0.044 mg/kg
- withdrawal jumping reduced (pre-weaning age mice; highest dose tested, 0.5-1.0 mg/kg (1/20th that of morphine)): 94%
- latency-to-first-jump (pre-weaning age mice; lowest dose (1/3000th the dose of morphine), 38+8 sec with no 6β-naltrexol): 128+44 sec
- decrease in jumping (pre-weaning age mice; lowest dose tested, 0.0033-0.0066 mg/kg (1/3000th that of morphine)): 20%
- ID50 dose lower than the morphine dose used for inducing dependence (pre-weaning age mice; mouse, in vivo): ~500 fold
- ID50 relative to the morphine dose (pre-weaning age mice; ratio of 6β-naltrexol to morphine): 1/450
- brain levels lower than plasma levels [3]: ~10 fold
